The pIC50 is −log10 of the IC50, conventionally taken in molar units.

pIC50: −log10 of the molar value.

human factor D, sequence (P00746 26-253): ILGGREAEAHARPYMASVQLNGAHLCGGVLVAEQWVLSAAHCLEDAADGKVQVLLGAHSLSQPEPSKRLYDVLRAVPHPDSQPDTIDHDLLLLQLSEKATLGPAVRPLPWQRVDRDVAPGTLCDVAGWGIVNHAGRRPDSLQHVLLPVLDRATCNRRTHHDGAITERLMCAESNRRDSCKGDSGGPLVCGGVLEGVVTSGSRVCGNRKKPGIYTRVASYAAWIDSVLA

The first assay concerns the target human factor D (Homo sapiens (Human), UniProt P00746). Description: biochemical. The class given is biochemical. To be noted: Factor D inhibition data using Method 1; recombinant human factor D 10 nM, substrate Z-Lys-thiobenzyl, fluorescence; read-out: IC50. The procedure:
Human Complement Factor D Assay: Method 1
Recombinant human factor D (expressed in E. coli and purified using standard methods) at 10 nM concentration is incubated with test compound at various concentrations for 1 hour at room temperature in 0.1 M Hepes buffer, pH 7.5, containing 1 mM MgCl2, 1 M NaCl and 0.05% CHAPS. A synthetic substrate Z-Lys-thiobenzyl and 2,4-dinitrobenzenesulfonyl-fluoresceine are added to final concentrations of 200 μM and 25 μM, respectively. The increase in fluorescence is recorded at excitation of 485 nm and emission at 535 nm in a microplate spectrofluorimeter. IC50 values are calculated from percentage of inhibition of complement factor D-activity as a function of test compound concentration.
Take `NC(=O)c1nn(CC(=O)N2[C@@H]3C[C@@H]3C[C@H]2C(=O)NC[C@H]2CC2(Cl)Cl)c2cnccc12` [Example 72, 1-(2-{(1R,3S,5R)-3-[((R)-2,2-Dichloro-cyclopropylmethyl)-carbamoyl]-2-aza-bicyclo[3.1.0]hex-2-yl}-2-oxo-ethyl)-1H-pyrazolo[3,4-c]pyridine-3-carboxylic acid amide]: the pIC50 is 7.44. On the same count and under the same terms, next, `C[C@@]1(F)C[C@@H](C(=O)NC[C@H]2CC2(Cl)Cl)N(C(=O)Cn2nc(C(N)=O)c3ccccc32)C1` [Example 60, 1-(2-{(2S,4R)-2-[((R)-2,2-Dichloro-cyclopropylmethyl)-carbamoyl]-4-fluoro-4-methyl-pyrrolidin-1-yl}-2-oxo-ethyl)-1H-indazole-3-carboxylic acid amide]: 6.91; `CC(=O)c1nn(CC(=O)N2[C@@H]3C[C@@H]3C[C@H]2C(=O)NCC2CC2(Cl)Cl)c2ncccc12` (stereo partly drawn) [Example 11, (1R,3S,5R)-2-[2-(3-Acetyl-pyrazolo[3,4-b]pyridin-1-yl)-acetyl]-2-aza-bicyclo[3.1.0] hexane-3-carboxylic acid (2,2-dichloro-cyclopropylmethyl)-amide]: 6.79. Still for that read-out and setting: next, `CCc1cc2c(C(N)=O)nn(CC(=O)N3[C@@H]4C[C@@H]4C[C@H]3C(=O)N[C@H](C)[C@H]3CC3(Cl)Cl)c2cn1` [Example 39, 1-(2-{(1R,3S,5R)-3-[(R)-1-((R)-2,2-Dichloro-cyclopropyl)-ethylcarbamoyl]-2-aza-bicyclo[3.1.0]hex-2-yl}-2-oxo-ethyl)-5-ethyl-1H-pyrazolo[3,4-c] pyridine-3-carboxylic acid amide]: 7.57; `CC(=O)c1nn(CC(=O)N2[C@@H]3C[C@@H]3C[C@H]2C(=O)NCC2CC3(CC3)C2)c2cnccc12` [Example 8, (1R,3S,5R)-2-[2-(3-Acetyl-pyrazolo[3,4-c]pyridin-1-yl)-acetyl]-2-aza-bicyclo[3.1.0] hexane-3-carboxylic acid (spiro[2.3]hex-5-ylmethyl)-amide]: 6.30; `C[C@@H](NC(=O)[C@@H]1C[C@H]2C[C@H]2N1C(=O)Cn1nc(C(N)=O)c2ccc(Cl)cc21)[C@H]1CC1(Cl)Cl` [Example 49, 6-Chloro-1-(2-{(1R,3S,5R)-3-[(R)-1-((R)-2,2-dichloro-cyclopropyl)-ethylcarbamoyl]-2-aza-bicyclo[3.1.0]hex-2-yl}-2-oxo-ethyl)-1H-indazole-3-carboxylic acid amide]: 8.40. Turning to `CC(=O)c1nn(CC(=O)N2[C@@H]3C[C@@H]3C[C@H]2C(=O)N[C@H](C)[C@H]2CC2(Cl)Cl)c2ccccc12` [Example 46, (1R,3S,5R)-2-[2-(3-Acetyl-indazol-1-yl)-acetyl]-2-aza-bicyclo[3.1.0]hexane-3-carboxylic acid [(R)-1-((R)-2,2-dichloro-cyclopropyl)-ethyl]-amide], the pIC50 is 7.92. Still for that read-out and setting: next, `NC(=O)n1cc(NC(=O)N2[C@@H]3C[C@@H]3C[C@H]2C(=O)NCC2CCCCC2)c2ccccc21` [Example 25, (1R,3S,5R)-2-Aza-bicyclo[3.1.0]hexane-2,3-dicarboxylic acid 2-[(1-carbamoyl-1H-indol-3-yl)-amide]3-cyclohexylmethyl-amide]: 6.59; `NC(=O)c1nn(CC(=O)N2[C@@H]3C[C@@H]3C[C@H]2C(=O)NC[C@H]2CC2(Cl)Cl)c2ccccc12` [Example 31, 1-(2-{(1R,3S,5R)-3-[((R)-2,2-Dichloro-cyclopropylmethyl)-carbamoyl]-2-aza-bicyclo[3.1.0]hex-2-yl}-2-oxo-ethyl)-1H-indazole-3-carboxylic acid amide]: 7.49. Still for that read-out and setting: next, `CC(=O)c1nn(CC(=O)N2[C@@H]3C[C@@H]3C[C@H]2C(=O)NCC2CCCC(C(F)(F)F)C2)c2cnccc12` (stereo partly drawn) [Example 14, (1R,3S,5R)-2-[2-(3-Acetyl-pyrazolo[3,4-c]pyridin-1-yl)-acetyl]-2-aza-bicyclo[3.1.0] hexane-3-carboxylic acid (3-trifluoromethyl-cyclohexylmethyl)-amide]: 6.48; `CCC1(CC)CC1CNC(=O)[C@@H]1C[C@H]2C[C@H]2N1C(=O)Cn1nc(C(C)=O)c2cccnc21` (stereo partly drawn) [Example 10, (1R,3S,5R)-2-[2-(3-Acetyl-pyrazolo[3,4-b]pyridin-1-yl)-acetyl]-2-aza-bicyclo[3.1.0] hexane-3-carboxylic acid (2,2-diethyl-cyclopropylmethyl)-amide]: 5.85. Take `NC(=O)c1nn(CC(=O)N2[C@@H]3C[C@@H]3C[C@H]2C(=O)NC[C@H]2CC2(Cl)Cl)c2ccc(Cl)cc12` [Example 97, 5-Chloro-1-(2-{(1R,3S,5R)-3-[((R)-2,2-dichloro-cyclopropylmethyl)-carbamoyl]-2-aza-bicyclo[3.1.0]hex-2-yl}-2-oxo-ethyl)-1H-indazole-3-carboxylic acid amide]: the pIC50 is 6.66. As to `CO[C@H]1[C@@H](C(=O)NC[C@H]2CC2(Cl)Cl)N(C(=O)Cn2nc(C(N)=O)c3ccccc32)C[C@@H]1F` [Example 42, 1-(2-{(2S,3S,4S)-2-[((R)-2,2-Dichloro-cyclopropylmethyl)-carbamoyl]-4-fluoro-3-methoxy-pyrrolidin-1-yl}-2-oxo-ethyl)-1H-indazole-3-carboxylic acid amide], the pIC50 is 6.95. Take `CC(=O)c1nn(CC(=O)N2[C@@H]3C[C@@H]3C[C@H]2C(=O)NCC2CCCC2(C)C)c2cnccc12` (single isomer, unassigned; dia 1) [Example 19]: the negative-log IC50 (pIC50) was 5.79.

As for `C[C@@H](NC(=O)[C@@H]1C[C@H]2C[C@H]2N1C(=O)Cn1nc(C(N)=O)c2ccncc21)C1CCCCC1` [Example 55, 1-{2-[(1R,3S,5R)-3-((R)-1-Cyclohexyl-ethylcarbamoyl)-2-aza-bicyclo[3.1.0]hex-2-yl]-2-oxo-ethyl}-1H-pyrazolo[3,4-c]pyridine-3-carboxylic acid amide], the pIC50 was 6.80.

`CC(=O)c1nn(CC(=O)N2[C@@H]3C[C@@H]3C[C@H]2C(=O)NC[C@H]2CC2(Cl)Cl)c2ccc(OCc3cscn3)cc12` [Example 105, (1R,3S,5R)-2-{2-[3-Acetyl-5-(thiazol-4-ylmethoxy)-indazol-1-yl]-acetyl}-2-aza-bicyclo[3.1.0]hexane-3-carboxylic acid ((R)-2,2-dichloro-cyclopropylmethyl)-amide]: the pIC50 is 7.85. `CC1CCCC(CNC(=O)[C@@H]2C[C@H]3C[C@H]3N2C(=O)Cn2nc(C(N)=O)c3ccncc32)C1` (single isomer, unassigned; dia 2) [Example 116]: the negative logarithm of the IC50 (pIC50) is 6.35.

With `CC1(C)[C@H](CNC(=O)[C@@H]2C[C@H]3C[C@H]3N2C(=O)Nc2cn(C(N)=O)c3ccccc23)C1(Cl)Cl` [Example 27, (1R,3S,5R)-2-Aza-bicyclo[3.1.0]hexane-2,3-dicarboxylic acid 2-[(1-carbamoyl-1H-indol-3-yl)-amide] 3-[((R)-2,2-dichloro-3,3-dimethyl-cyclopropylmethyl)-amide]], the negative logarithm of the IC50 (pIC50) was 7.72.

Turning to `C[C@@H](NC(=O)[C@@H]1C[C@H]2C[C@H]2N1C(=O)Cn1nc(C(N)=O)c2ccccc21)C1CCCCC1` [Example 54, 1-{2-[(1R,3S,5R)-3-((R)-1-Cyclohexyl-ethylcarbamoyl)-2-aza-bicyclo[3.1.0]hex-2-yl]-2-oxo-ethyl}-1H-indazole-3-carboxylic acid amide], the negative-log IC50 (pIC50) was 7.19. The same measure, in the same setting: next, `NC(=O)c1nn(CC(=O)N2[C@@H]3C[C@@H]3C[C@H]2C(=O)NCC2CC2(F)F)c2ccccc12` (stereo partly drawn) [Example 67, 1-(2-{(1R,3S,5R)-3-[(2,2-Difluoro-cyclopropylmethyl)-carbamoyl]-2-aza-bicyclo[3.1.0]hex-2-yl}-2-oxo-ethyl)-1H-indazole-3-carboxylic acid amide]: 6.37.

Staying with this assay, now noted: IC50, Factor D inhibition data using Method 1; recombinant human factor D 10 nM, substrate Z-Lys-thiobenzyl, fluorescence.
In the case of `CC(=O)c1nn(CC(=O)N2[C@@H]3C[C@@H]3C[C@H]2C(=O)NC(C)C2CC2(Cl)Cl)c2ccc(OCc3ncccn3)cc12` (single isomer, unassigned; dia 4) [Example 35], the pIC50 is 6.49. Regarding `CC1C(CNC(=O)[C@@H]2C[C@H]3C[C@H]3N2C(=O)Cn2nc(C(N)=O)c3ccncc32)C1(Cl)Cl` (single isomer, unassigned; dia 2) [Example 80, 1-(2-{(1R,3S,5R)-3-[((1R,3S) or (1S,3R)-2,2-Dichloro-3-methyl-cyclopropylmethyl)-carbamoyl]-2-aza-bicyclo[3.1.0]hex-2-yl}-2-oxo-ethyl)-1H-pyrazolo[3,4-c]pyridine-3-carboxylic acid amide-Dia 2], the pIC50 is 7.01. Regarding `CC(=O)c1nn(CC(=O)N2[C@@H]3C[C@@H]3C[C@H]2C(=O)NCC2C(C)C2(Cl)Cl)c2ccc(OCc3ncccn3)cc12` (single isomer, unassigned; dia 2) [Example 109, (1R,3S,5R)-2-{2-[3-Acetyl-5-(pyrimidin-2-ylmethoxy)-indazol-1-yl]-acetyl}-2-aza-bicyclo[3.1.0] hexane-3-carboxylic acid ((1R,3S) or (1S,3R)-2,2-dichloro-3-methyl-cyclopropylmethyl)-amide-Dia 2], the negative-log IC50 (pIC50) was 7.31.

As for `CC(=O)c1nn(CC(=O)N2[C@@H]3C[C@@H]3C[C@H]2C(=O)NCC2C(C)C2(Cl)Cl)c2ccc(OCc3ncccn3)cc12` (single isomer, unassigned; dia 1) [Example 108, (1R,3S,5R)-2-{2-[3-Acetyl-5-(pyrimidin-2-ylmethoxy)-indazol-1-yl]-acetyl}-2-aza-bicyclo[3.1.0] hexane-3-carboxylic acid ((1R,3S) or (1S,3R)-2,2-dichloro-3-methyl-cyclopropylmethyl)-amide-Dia 1], the negative-log IC50 (pIC50) is 7.57.

The record behind these values is patent US9468661B2, “Pyrrolidine derivatives and their use as complement pathway modulators” (priority 2012, dated 2016).
